Laboratory results published in US8053212B1, “Non-standard nucleoside analogs with reduced epimerization” (priority 2004, dated 2011).

Experiments:
[1] = not given; remark: listed apart in the source
[2] = Epimerization at neutral pH followed by 1H NMR in D2O; format: physicochemical; details: room temperature, after one week
Description: To measure the rate of epimerization of the nucleoside at neutral pH, a sample was dissolved in D2O and stored at room temperature. The ^1H NMR was measured after several time intervals. […] In particular, the NMR signal arising from H-6 of the heterocycle remained unchanged.

Row | Compound | fraction protonated at physiological pH [%] | pseudo first order rate constant of initial epimerization, kpH2 ([1]; pH 2.0, 37° C., aqueous) | slope of replot of logk versus pH ([1]; pH 2.0 to 5.0, 37° C.) | pseudo first order rate constant of initial epimerization, kpH5 ([1]; pH 5.0, 37° C., aqueous) | epimerization at high pH ([1]; pH 11.0, 23° C., 14 days, HPLC) | change of 1H NMR spectrum (epimerization) [2] | "end" value: fraction of starting material remaining at end of reaction ([1]; buffer, 336 h, pH 2)
1 | Nc1[nH]c(=O)c([C@H]2C[C@H](O)[C@@H](CO)O2)cc1[N+](=O)[O-] | > 80 | ≈ 10^−4 s^−1 | −0.971 | ≈ 2×10^−7 s^−1 | no epimerization was detected | did not change | –
2 | Nc1[nH]c(=O)c([C@H]2C[C@H](O)[C@@H](CO)O2)cc1[N+](=O)[O-] [nucleoside 4, 6-amino-5-nitro-3-(1′-beta-D-2′-deoxyribofuranosyl)-2(1H)-pyridone] | – | – | – | – | – | – | 0.09
